Measurements reported in patent US4616003A, “N^6 -dihydroxypropyladenosines” (Warner-Lambert Company, priority 1985, dated 1986).
Read-outs that look alike come from different tables or passages of the source.

Experiments:
adenosine A1 receptor = target: T1, adenosine A1 receptor (Rattus norvegicus, UniProt P25099); test: Adenosine A1 receptor binding (RBA-1), displacement of [3H]-CHA
T1 construct: Whole brain minus cerebellum and brainstem from male Long Evans rats (150-200 g) was homogenized; from tissue; host or cells: rat whole brain minus cerebellum and brainstem, male Long Evans
T1 sequence (P25099 1-326): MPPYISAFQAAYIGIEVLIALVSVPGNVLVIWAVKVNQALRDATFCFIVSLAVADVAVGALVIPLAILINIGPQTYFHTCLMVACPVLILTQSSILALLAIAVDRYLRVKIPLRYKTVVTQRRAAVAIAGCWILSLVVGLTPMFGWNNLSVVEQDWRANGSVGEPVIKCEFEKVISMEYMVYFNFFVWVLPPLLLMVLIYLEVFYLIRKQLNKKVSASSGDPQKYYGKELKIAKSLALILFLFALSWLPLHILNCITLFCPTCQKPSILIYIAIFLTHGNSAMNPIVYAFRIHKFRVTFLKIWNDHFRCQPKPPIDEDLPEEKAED
Protocol: Whole brain minus cerebellum and brainstem from male Long Evans rats (150-200 g) was homogenized in 30 volumes of ice-cold 0.05M Tris-HCl buffer pH 7.7 using a Brinkman Polytron PT-10, (setting number 6 for 20 seconds) and centrifuged for ten minutes at 20,000×g (Sorvall RC-2), 4° C. The supernatant was discarded, and the pellet was resuspended and centrifuged as before. The pellet was resuspended in 20 ml Tris-HCl buffer containing two International Units/ml of adenosine deaminase (Sigma type III from calf intestinal mucosa), incubated at 37° C. for 30 minutes, then subsequently at 0° C. for ten minutes. The homogenate was again centrifuged, and the final pellet was resuspended in ice-cold 0.05M Tris-HCl buffer pH 7.7 to a concentration of 20 mg/ml original wet tissue weight and used immediately.
Tissue homogenate (10 mg/ml) was incubated in 0.05M Tris-HCl buffer pH 7.7 containing 1.0 nM [^3 H]-N^6 -cyclohexyladenosine [^3 H]-CHA) with or without test agents in triplicate for one hour at 25° C. Incubation volume was 2 ml. Unbound [^3 H]-CHA was separated by rapid filtration under reduced pressure through Whatman glass fiber (GF/B) filters. The filters were rinsed three times with 5 ml of ice cold 0.05M Tris-HCl buffer pH 7.7. The radio-labeled ligand retained on the filter was measured by liquid scintillation spectrophotometry after shaking the filters for one hour or longer on a mechanical shaker in 10 ml of Beckman Ready-Solv HP scintillation cocktail.
Nonspecific binding was defined as the binding which occurred in the presence of 1 mM theophylline. […] The Scatchard plot was calculated by linear regression of the line obtained by plotting the amount of radioligand bound (pmoles/gram of tissue) versus [formula] Since the amount of radioligand bound was a small fraction of the total amount added, free radioligand was defined as the concentration (nM) of radioligand added to the incubation mixture. The Hill coefficient was calculated by linear regression of the line obtained by plotting the log of the bound radioligand vs the log of the [formula] The maximal number of binding sites (Bmax) was calculated from the Scatchard plot.

Swiss-Webster male mice [1] = test: Mouse Activity and Screen Test (MAST): inhibition of spontaneous locomotor activity; format: in vivo; details: 1 hour prior to testing
Protocol: Nine unfasted Swiss-Webster male mice weighing 20-30 g are equally divided into three groups for each drug dose to be tested. That is, data for each dose level was generated by three separate groups of three mice each. A minimum of three dose levels (10, 30, and 100 mg/kg) are tested for each drug. Treatments are administered intraperitoneally one hour prior to testing. All dosages are calculated as parent compound and given in volumes of 10 ml/kg. Compounds are dissolved or suspended in 0.2% Methocel. Control animals are injected with Methocel. Immediately following the screen test, the final phase of testing is initiated by placing each group of three mice in one actophotometer (Life Sciences, 22, 1067-1076, 1978). The actophotometer consists of a cylindrical chamber whose center is occupied by another cylinder which contains the illumination for six photocells located on the perimeter of the chamber. Six light-beam interruptions equal one count. Locomotor activity is recorded by computer at ten minute intervals for 60 minutes. Data: The data obtained from the screen test are expressed as percent of mice falling off the screen. Data derived from locomotor activity of drug treated mice are compared to the activity of vehicle treated animals and are expressed as percent inhibition of spontaneous locomotion. All percentages reported for inhibition of locomotion (LI) are based upon data accumulated for one hour. Both phases of testing are graded: A=60-100%; C=31-59%; and N=0-30%. An overall dose rating is obtained by the following criteria: […]

Swiss-Webster male mice [2] = test: Mouse Activity and Screen Test (MAST): screen test failure; format: in vivo; details: 1 hour prior to testing
Protocol: Nine unfasted Swiss-Webster male mice weighing 20-30 g are equally divided into three groups for each drug dose to be tested. That is, data for each dose level was generated by three separate groups of three mice each. A minimum of three dose levels (10, 30, and 100 mg/kg) are tested for each drug. Treatments are administered intraperitoneally one hour prior to testing. All dosages are calculated as parent compound and given in volumes of 10 ml/kg. Compounds are dissolved or suspended in 0.2% Methocel. Control animals are injected with Methocel. Testing: A two part testing procedure is started one hour postinjection. First, the screen test (ST) is performed (see Pharmac. Biochem. Behav. 6, 351-353, 1977). Briefly this test consists of placing mice on individual wire screens which are then rotated 180 degrees at the start of a 60 second observation period. The number of mice falling off the inverted screen is recorded. Data: The data obtained from the screen test are expressed as percent of mice falling off the screen. Data derived from locomotor activity of drug treated mice are compared to the activity of vehicle treated animals and are expressed as percent inhibition of spontaneous locomotion. All percentages reported for inhibition of locomotion (LI) are based upon data accumulated for one hour. Both phases of testing are graded: A=60-100%; C=31-59%; and N=0-30%. An overall dose rating is obtained by the following criteria: […]

[3] = 1.0 nM [3H]-CHA, rat whole brain minus cerebellum and brainstem, read-out: RBA-1 (IC50, adenosine A1 receptor affinity)

Compound	IC50 (adenosine A1 receptor; [3])	Inhibition of Mouse Locomotor Activity (Swiss-Webster male mice [1]; 0.1 mg/kg i.p.)	Inhibition of Mouse Locomotor Activity (Swiss-Webster male mice [1]; 0.3 mg/kg i.p.)	Inhibition of Mouse Locomotor Activity (Swiss-Webster male mice [1]; 1.0 mg/kg i.p.)	Inhibition of Mouse Locomotor Activity (Swiss-Webster male mice [1]; 3.0 mg/kg i.p.)	Inhibition of Mouse Locomotor Activity (Swiss-Webster male mice [1]; 10 mg/kg i.p.)	Inhibition of Mouse Locomotor Activity (Swiss-Webster male mice [1]; 30 mg/kg i.p.)	Inhibition of Mouse Locomotor Activity (Swiss-Webster male mice [1]; 100 mg/kg i.p.)	Screen Test Failure (Swiss-Webster male mice [2]; 0.1 mg/kg i.p.)	Screen Test Failure (Swiss-Webster male mice [2]; 0.3 mg/kg i.p.)	Screen Test Failure (Swiss-Webster male mice [2]; 1.0 mg/kg i.p.)	Screen Test Failure (Swiss-Webster male mice [2]; 3.0 mg/kg i.p.)	Screen Test Failure (Swiss-Webster male mice [2]; 10 mg/kg i.p.)	Screen Test Failure (Swiss-Webster male mice [2]; 30 mg/kg i.p.)	Screen Test Failure (Swiss-Webster male mice [2]; 100 mg/kg i.p.)	IC50 (adenosine A1 receptor)	Inhibition of Mouse Locomotor Activity (Swiss-Webster male mice [1]; 0.03 mg/kg i.p.)	Screen Test Failure (Swiss-Webster male mice [2]; 0.03 mg/kg i.p.)
OCC(O)CNc1ncnc2c1ncn2[C@@H]1O[C@H](CO)[C@@H](O)[C@@H]1O (stereo partly drawn) [Example 1, (R,S)-N^6 [2,3-Dihydroxypropyl]adenosine]	9 nM	46%	96%	97%	99%	100%	100%	99%	8%	100%	100%	100%	100%	100%	100%	–	–	–
OC[C@@H](O)CNc1ncnc2c1ncn2[C@@H]1O[C@H](CO)[C@@H](O)[C@H]1O [Example 3]	–	-18%	0%	92%	97%	97%	100%	–	0%	0%	88%	100%	100%	100%	–	46 nM	-19%	0%
Nc1nc(NCC(O)CO)c2ncn([C@@H]3O[C@H](CO)[C@@H](O)[C@H]3O)c2n1 (stereo partly shown) [Example 8]	34 nM	–	56%	98%	98%	99%	100%	99%	–	0%	88%	99%	99%	99%	99%	–	–	–

More lines, main results first:

IC50 (adenosine A1 receptor; [3])	Compound	Inhibition of Mouse Locomotor Activity (Swiss-Webster male mice [1]; 0.1 mg/kg i.p.)	Inhibition of Mouse Locomotor Activity (Swiss-Webster male mice [1]; 0.3 mg/kg i.p.)	Inhibition of Mouse Locomotor Activity (Swiss-Webster male mice [1]; 1.0 mg/kg i.p.)	Inhibition of Mouse Locomotor Activity (Swiss-Webster male mice [1]; 3.0 mg/kg i.p.)	Inhibition of Mouse Locomotor Activity (Swiss-Webster male mice [1]; 10 mg/kg i.p.)	Inhibition of Mouse Locomotor Activity (Swiss-Webster male mice [1]; 30 mg/kg i.p.)	Inhibition of Mouse Locomotor Activity (Swiss-Webster male mice [1]; 100 mg/kg i.p.)	Screen Test Failure (Swiss-Webster male mice [2]; 0.1 mg/kg i.p.)	Screen Test Failure (Swiss-Webster male mice [2]; 0.3 mg/kg i.p.)	Screen Test Failure (Swiss-Webster male mice [2]; 1.0 mg/kg i.p.)	Screen Test Failure (Swiss-Webster male mice [2]; 3.0 mg/kg i.p.)	Screen Test Failure (Swiss-Webster male mice [2]; 10 mg/kg i.p.)	Screen Test Failure (Swiss-Webster male mice [2]; 30 mg/kg i.p.)	Screen Test Failure (Swiss-Webster male mice [2]; 100 mg/kg i.p.)	IC50 (adenosine A1 receptor)	Inhibition of Mouse Locomotor Activity (Swiss-Webster male mice [1]; 0.03 mg/kg i.p.)	Screen Test Failure (Swiss-Webster male mice [2]; 0.03 mg/kg i.p.)
430 nM	CC1(C)OCC(CNc2ncnc3c2ncn3[C@@H]2O[C@H](CO)[C@@H](O)[C@H]2O)O1 (stereo partly drawn) [Example 4, (R,S)-N^6-[2,3Dihydroxypropylisopropylidene]adenosine]	–	6%	27%	23%	96%	93%	99%	–	0%	0%	0%	66%	99%	99%	–	–	–
440 nM	CC1(C)OC[C@@H](CNc2ncnc3c2ncn3[C@@H]2O[C@H](CO)[C@@H](O)[C@H]2O)O1 [Example 5, (R)-N^6-[2,3-Dihydroxypropylisopropylidene]-adenosine]	–	40%	39%	69%	48%	98%	–	–	0%	11%	11%	77%	100%	–	–	–	–
